Eleven compounds from ChEMBL document CHEMBL1201862, “PubChem BioAssay data set” (2004) can be followed below.

Among the test systems are BT-549; MDA-MB-435; OVCAR-4; DU-145; SW-620; M14; SR; OVCAR-3; UO-31; TK-10; LOX IMVI; HL-60; MDA-N; UACC-62; OVCAR-8; SK-OV-3; HCT-15; UACC-257; NCI/ADR-RES.
Common to all, as to assay: NCI-60 cell line screen, 48 h

Structures are written as SMILES.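 Following 48 hours of exposure in 96-well plates, responses at five concentrations were used to interpolate endpoints linearly. The concentration for 50% growth inhibition is given as GI50.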 Active and inactive are the calls of the source. Cut-off read from the data, not from the text of the source: active = GI50 up to about 1.1 µM and inactive = higher.

As to `C=CCN1C(=O)CC1N(CC=C)S(=O)(=O)c1ccc(C)cc1` (centres undefined), the GI50 in the test with BT-549, in the test with MDA-MB-435, in the test on OVCAR-4, with DU-145, in the test with SW-620 and in the test on M14 was > 100 µM (inactive) in each case. In addition, the GI50 was 82.8 µM (inactive) with SR; > 100 µM (inactive) in the test on OVCAR-3; > 100 µM (inactive) in the test with UO-31; > 100 µM (inactive) in the test on TK-10; > 100 µM (inactive) with LOX IMVI; > 100 µM (inactive) in the test with HL-60. The GI50 in the test on MDA-N is > 100 µM (inactive); in the test with UACC-62 it was > 100 µM (inactive); in the test on OVCAR-8 it was > 100 µM (inactive); with SK-OV-3 it was > 100 µM (inactive); in the test with HCT-15 it was > 100 µM; with UACC-257, > 100 µM (inactive). Besides, in the test with NCI/ADR-RES, the GI50 was > 100 µM (inactive).

For `O=C(O)Cc1ccc(Nc2nc3ccccc3nc2C(=O)O)cc1`, the GI50 in the test on BT-549, in the test on MDA-MB-435, with OVCAR-4, with DU-145, in the test with SW-620 and with M14 was > 100 µM (inactive) throughout. The GI50 with SR, with OVCAR-3, with UO-31, in the test with TK-10, in the test with LOX IMVI and in the test on HL-60 was > 100 µM (inactive) in each case. In addition, the GI50 was > 100 µM (inactive) in the test with MDA-N; > 100 µM (inactive) in the test with UACC-62; > 100 µM (inactive) in the test on OVCAR-8; > 100 µM (inactive) with SK-OV-3; > 100 µM in the test with HCT-15; > 100 µM (inactive) in the test on UACC-257. Besides, the GI50 in the test with NCI/ADR-RES was > 100 µM (inactive).

Take `Cc1ccc(C(=O)C2C=C(c3ccc(C)cc3)SC3C=CCC32)cc1` (centres undefined): the GI50 was 18.3 µM (inactive) with BT-549; 14.4 µM (inactive) with MDA-MB-435; 30.5 µM (inactive) with OVCAR-4; 32.3 µM (inactive) in the test on DU-145; 15.8 µM (inactive) with SW-620; 19.6 µM (inactive) in the test with M14. In addition, the GI50 was 12.6 µM (inactive) with SR; 17 µM (inactive) with OVCAR-3; 16.1 µM (inactive) in the test on UO-31; 25.3 µM (inactive) with TK-10; 18.4 µM (inactive) in the test on LOX IMVI; 8.95 µM (inactive) in the test with HL-60. The GI50 in the test with MDA-N was 14.8 µM (inactive); in the test with UACC-62, 17.9 µM (inactive); with OVCAR-8 it was 17 µM (inactive); in the test on SK-OV-3, 25.2 µM (inactive); with HCT-15, 21.6 µM; in the test on UACC-257, 21.7 µM (inactive). Further, in the test with NCI/ADR-RES, the GI50 was 18.5 µM (inactive).

For the compound `CP(=O)(O)C(N)c1ccccc1` (centres undefined), the GI50 in the test with BT-549, in the test with MDA-MB-435, in the test with OVCAR-4, in the test with DU-145, in the test with SW-620 and in the test with M14 was > 100 µM (inactive) in each case. In addition, the GI50 with SR, in the test on OVCAR-3, in the test on UO-31, in the test with TK-10, with LOX IMVI and in the test on HL-60 was > 100 µM (inactive) throughout. The GI50 with MDA-N was > 100 µM (inactive); in the test on UACC-62, > 100 µM (inactive); in the test with OVCAR-8, > 100 µM (inactive); with SK-OV-3, > 100 µM (inactive); with HCT-15 it was > 100 µM; with UACC-257, > 100 µM (inactive). In addition, in the test on NCI/ADR-RES, the GI50 is > 100 µM (inactive).

As for `CCc1nc2c(c(N(C)C)c1C(=O)OC)CCc1ccccc1-2`, the GI50 with BT-549 was 35 µM (inactive); in the test on MDA-MB-435, 23.4 µM (inactive); with OVCAR-4, 44.8 µM (inactive); in the test on DU-145, 1.5 µM (inactive); in the test with SW-620, 32.8 µM (inactive); in the test with M14, 24 µM (inactive). Besides, the GI50 is 11.4 µM (inactive) in the test with SR; 13.4 µM (inactive) in the test on OVCAR-3; 37.4 µM (inactive) in the test with UO-31; 35.5 µM (inactive) in the test with TK-10; 27.2 µM (inactive) in the test on LOX IMVI; 2.86 µM (inactive) in the test on HL-60. Moreover, the GI50 with MDA-N is 26.2 µM (inactive); with UACC-62, 16.9 µM (inactive); with OVCAR-8 it was 34.1 µM (inactive); in the test with SK-OV-3, 13.8 µM (inactive); in the test with HCT-15, 32.5 µM; in the test with UACC-257, 26.1 µM (inactive). Also, in the test with NCI/ADR-RES, the GI50 was 29.6 µM (inactive).

Turning to `Cc1nc2ccccc2n1CCc1nc2ccccc2[nH]1`, the GI50 with BT-549, with MDA-MB-435, in the test on OVCAR-4, in the test on DU-145, in the test with SW-620 and with M14 was > 100 µM (inactive) throughout. The GI50 in the test with SR, in the test on OVCAR-3, in the test on UO-31, in the test on TK-10, in the test on LOX IMVI and in the test on HL-60 was > 100 µM (inactive) throughout. The GI50 was > 100 µM (inactive) in the test on MDA-N; > 100 µM (inactive) in the test on UACC-62; > 100 µM (inactive) in the test with OVCAR-8; > 100 µM (inactive) in the test with SK-OV-3; > 100 µM in the test on HCT-15; > 100 µM (inactive) with UACC-257. Also, in the test on NCI/ADR-RES, the GI50 was > 100 µM (inactive).

With `COc1ccc2c3c1O[C@H]1[C@@H](O)CC[C@@]4(O)[C@@H](C2)N(C)CC[C@]314`, the GI50 in the test with BT-549, in the test on MDA-MB-435, in the test with OVCAR-4, with DU-145, in the test on SW-620 and with M14 was > 100 µM (inactive) each time. For the same compound, the GI50 with SR is > 100 µM (inactive); in the test with OVCAR-3, > 100 µM (inactive); in the test with UO-31, > 100 µM (inactive); in the test on TK-10 it was > 100 µM (inactive); in the test on LOX IMVI, > 100 µM (inactive); in the test on HL-60, 2.93 µM (inactive). The GI50 in the test on MDA-N is > 100 µM (inactive); with UACC-62, > 100 µM (inactive); in the test on OVCAR-8, > 100 µM (inactive); in the test with SK-OV-3 it was > 100 µM (inactive); in the test on HCT-15, > 100 µM; with UACC-257, > 100 µM (inactive). The GI50 with NCI/ADR-RES is > 100 µM (inactive).

Take `CC(=O)N1N=C(c2cc(C)ccc2O)CC1c1cccc(Cl)c1` (centres undefined): the GI50 in the test with BT-549 was 33.3 µM (inactive); in the test with MDA-MB-435, 1.6 µM (inactive); with OVCAR-4, 13.7 µM (inactive); in the test with DU-145 it was 51.9 µM (inactive); in the test with SW-620 it was 7.74 µM (inactive); in the test on M14 it was 15.1 µM (inactive). Moreover, the GI50 is 1.83 µM (inactive) in the test with SR; 32.1 µM (inactive) in the test with OVCAR-3; 17.4 µM (inactive) in the test with UO-31; 17.4 µM (inactive) in the test on TK-10; 12.5 µM (inactive) with LOX IMVI; 8.53 µM (inactive) in the test on HL-60. In addition, the GI50 is 2.12 µM (inactive) with MDA-N; 7.6 µM (inactive) in the test on UACC-62; 27.4 µM (inactive) in the test on OVCAR-8; 9.1 µM (inactive) in the test on SK-OV-3; 1.95 µM in the test with HCT-15; 14.2 µM (inactive) in the test with UACC-257. For the same compound, the GI50 in the test on NCI/ADR-RES was 6.03 µM (inactive).

`CN(C)Cc1ccc(C(C)(C)C)cc1-c1cc(C(C)(C)C)ccc1CN(C)C`: the GI50 in the test with BT-549 is > 100 µM (inactive); with MDA-MB-435, 55.6 µM (inactive); in the test with OVCAR-4, 53.7 µM (inactive); with DU-145, > 100 µM (inactive); in the test with SW-620 it was > 100 µM (inactive); with M14, 20.8 µM (inactive). Moreover, the GI50 is 39 µM (inactive) in the test on SR; 21.8 µM (inactive) with OVCAR-3; 42.7 µM (inactive) with UO-31; > 100 µM (inactive) in the test on TK-10; 83.6 µM (inactive) with LOX IMVI; 86.9 µM (inactive) with HL-60. The GI50 in the test on MDA-N is 48.5 µM (inactive); in the test on UACC-62 it was > 100 µM (inactive); in the test with OVCAR-8, > 100 µM (inactive); with SK-OV-3 it was > 100 µM (inactive); with HCT-15, 72.3 µM; in the test with UACC-257, 21.6 µM (inactive). The GI50 in the test with NCI/ADR-RES was > 100 µM (inactive).

On to `O=[N+]([O-])c1nccn1CCCNc1ccnc2cc(Cl)ccc12`, for which the GI50 was 8.69 µM (inactive) in the test on BT-549; 6.71 µM (inactive) in the test with MDA-MB-435; 6.41 µM (inactive) in the test on OVCAR-4; > 7.74 µM (inactive) in the test with DU-145; 4.23 µM (inactive) with SW-620; 4.5 µM (inactive) in the test on M14. In addition, the GI50 in the test on SR is 2.81 µM (inactive); in the test with OVCAR-3, 1.77 µM (inactive); in the test with UO-31 it was 5.4 µM (inactive); in the test with TK-10, 3.53 µM (inactive); in the test with LOX IMVI, 4.63 µM (inactive); in the test with HL-60, 5 µM (inactive). For the same compound, the GI50 in the test with MDA-N was 7.29 µM (inactive); with UACC-62, 6.21 µM (inactive); in the test on OVCAR-8, 7.4 µM (inactive); in the test on SK-OV-3, 6.49 µM (inactive); with HCT-15 it was 19.8 µM; in the test with UACC-257, 3.44 µM (inactive). In the test with NCI/ADR-RES, the GI50 is > 96.6 µM (inactive).

With `C=C1C(=O)OC2C1C(OC(=O)/C(C)=C/C)CC(O)(CCl)C1C(O)C=C(C)C21O` (centres undefined), the GI50 with BT-549 was 9.48 µM (inactive); in the test on MDA-MB-435, 23 µM (inactive); in the test with OVCAR-4, 14.2 µM (inactive); in the test on DU-145, 16.5 µM (inactive); in the test with SW-620, 3.85 µM (inactive); in the test on M14, 11.4 µM (inactive). Besides, the GI50 was 3.94 µM (inactive) in the test on SR; 11.9 µM (inactive) with OVCAR-3; 15 µM (inactive) in the test with UO-31; 14.1 µM (inactive) in the test with TK-10; 4.89 µM (inactive) in the test with LOX IMVI; 2.28 µM (inactive) in the test on HL-60. Besides, the GI50 with MDA-N was 14.9 µM (inactive); with UACC-62 it was 12.5 µM (inactive); in the test with OVCAR-8, 10.9 µM (inactive); in the test on SK-OV-3, 47.9 µM (inactive); in the test with HCT-15, 3.72 µM; in the test with UACC-257 it was 12.1 µM (inactive). Also, in the test on NCI/ADR-RES, the GI50 was 17.9 µM (inactive).
